In ChEMBL document CHEMBL1136595, “Oximino-piperidino-piperidine-based CCR5 antagonists. Part 2: synthesis, SAR and biological evaluation of symmetrical heteroaryl carboxamides” (Bioorg Med Chem Lett, 2003):

Assays:
[1] = tested on: Human immunodeficiency virus 1; test: Inhibition of HIV-1 (ADA) entry into U-87 (human glioblastoma) cells.; assay type: functional, organism-based; conditions: Human immunodeficiency virus 1, U-87 MG
[2] = molecular target: C-C chemokine receptor type 5 (Homo sapiens, UniProt P51681); test: Inhibition of [125I]RANTES binding to CCR5 receptor.
[3] = Area under curve after peroral administration at 10 mg/kg in rat for 0-6 h; assay type: ADME, organism-based; set-up: time < 6 hr, dose 10 mg/kg, route oral; conditions: in vivo, po

C-C chemokine receptor type 5, sequence (P51681 whole entry): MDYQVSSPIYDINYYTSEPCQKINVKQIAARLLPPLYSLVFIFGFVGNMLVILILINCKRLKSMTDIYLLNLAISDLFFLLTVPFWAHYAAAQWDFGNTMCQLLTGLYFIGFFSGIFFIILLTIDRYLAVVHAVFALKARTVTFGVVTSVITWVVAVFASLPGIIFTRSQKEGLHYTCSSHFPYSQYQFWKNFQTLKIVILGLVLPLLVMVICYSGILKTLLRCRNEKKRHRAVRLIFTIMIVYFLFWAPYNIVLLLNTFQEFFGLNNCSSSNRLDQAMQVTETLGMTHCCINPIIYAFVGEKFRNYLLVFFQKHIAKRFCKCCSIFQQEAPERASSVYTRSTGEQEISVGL

Compound	IC50 [1] [nM]	Ki [2] [nM]	AUC at 6 h [3] [ng·h/mL]
CCO/N=C(/c1ccc(Br)cc1)C1CCN(C2(C)CCN(C(=O)c3c(C)nc(C(F)(F)F)nc3C)CC2)CC1	0.26	3.2	2000
COC[C@@H](c1ccc(C(F)(F)F)cc1)N1CCN(C2(C)CCN(C(=O)c3c(C)ncnc3C)CC2)C[C@@H]1C [VICRIVIROC]	0.6	–	6500
CCO/N=C(/c1ccc(Br)cc1)C1CCN(C2(C)CCN(C(=O)c3c(C)nc(NC(C)=O)nc3C)CC2)CC1	–	60	–
Cc1ncnc(C)c1C(=O)N1CCC(C)(N2CCC(/C(=N\OCC(F)(F)F)c3ccc(Br)cc3)CC2)CC1	3.8	14	6900
CCO/N=C(\c1ccc(Br)cc1)C1CCN(C2(C)CCN(C(=O)c3c(Br)c[n+]([O-])cc3Br)CC2)CC1	1.24	0.7	4400
CCO/N=C(/c1ccc(Br)cc1)C1CCN(C2(C)CCN(C(=O)c3c(C)nc(OC)nc3C)CC2)CC1	0.13	5.3	1800
CCO/N=C(/c1ccc(Br)cc1)C1CCN(C2(C)CCN(C(=O)c3c(C)nc(N)nc3C)CC2)CC1	0.35	5.7	3100
CCO/N=C(\c1ccc(Br)cc1)C1CCN(C2(C)CCN(C(=O)c3c(C)c[n+]([O-])cc3C)CC2)CC1	0.4	8.8	1600
CCO/N=C(/c1ccc(Br)cc1)C1CCN(C2(C)CCN(C(=O)c3c(C)nc(C)nc3C)CC2)CC1	0.93	2.1	2700
CO/N=C(\c1ccc(Br)cc1)C1CCN(C2(C)CCN(C(=O)c3c(C)ncnc3C)CC2)CC1	1.83	4.7	4100
CCO/N=C(\c1ccc(Br)cc1)C1CCN(C2(C)CCN(C(=O)c3c(C)ncnc3C)CC2)CC1	0.36	2.2	3100
CCCO/N=C(/c1ccc(Br)cc1)C1CCN(C2(C)CCN(C(=O)c3c(C)ncnc3C)CC2)CC1	0.89	2	1600
Cc1ncnc(C)c1C(=O)N1CCC(C)(N2CCC(/C(=N\OCC(C)C)c3ccc(Br)cc3)CC2)CC1	1.17	8.1	600
CCO/N=C(\c1ccc(Br)cc1)C1CCN(C2(C)CCN(C(=O)c3c(C)cncc3C)CC2)CC1	–	2.3	1300
CCO/N=C(\c1ccc(Br)cc1)C1CCN(C2(C)CCN(C(=O)c3c(Cl)cncc3Cl)CC2)CC1	0.69	–	500
CCO/N=C(/c1ccc(Br)cc1)C1CCN(C2(C)CCN(C(=O)c3c(C)nc(NS(C)(=O)=O)nc3C)CC2)CC1	–	315	–
CCO/N=C(/c1ccc(Br)cc1)C1CCN(C2(C)CCN(C(=O)c3c(C)nc(C4CC4)nc3C)CC2)CC1	–	25	–
Cc1ncnc(C)c1C(=O)N1CCC(C)(N2CCC(/C(=N\OCC3CC3)c3ccc(Br)cc3)CC2)CC1	–	11	3700
CCO/N=C(/c1ccc(Br)cc1)C1CCN(C2(C)CCN(C(=O)c3c(C)nc(C(C)C)nc3C)CC2)CC1	–	43	–
CCO/N=C(/c1ccc(Br)cc1)C1CCN(C2(C)CCN(C(=O)c3c(C)nc(SC)nc3C)CC2)CC1	–	1.3	400
CCO/N=C(\c1ccc(Br)cc1)C1CCN(C2(C)CCN(C(=O)c3c(Br)cncc3Br)CC2)CC1	1.04	–	500
Cc1ncnc(C)c1C(=O)N1CCC(C)(N2CCC(/C(=N\OC(C)C)c3ccc(Br)cc3)CC2)CC1	0.28	3.3	2400
CCO/N=C(\c1ccc(Br)cc1)C1CCN(C2(C)CCN(C(=O)c3c(Cl)c[n+]([O-])cc3Cl)CC2)CC1	0.15	1.2	3900
